# Biological target: T1, human Werner helicase (WRN-BV08, Uniprot Q14191, amino acids 517-1235 with L1074F point mutation) (Homo sapiens, UniProt Q14191, L1074F)
# T1 construct: Uniprot Q14191, amino acids 517-1235 with L1074F point mutation; TEV-cleavable 8×His (C, cleaved yes); made in house; host or cells: Sf9 insect cells (baculovirus)
# Test: WRN (BV08) ADP-Glo Assay
# Format: biochemical
# Details: 0.15 nM WRN, 5 μM ATP, 0.1 nM DNA duplex, 15 min preincubation, 60 min at 25° C., pH 7.5, 1% DMSO; read-out: ADP-Glo_hWRN_IC50
# Summary of the method: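 ADP-Glo luminescence read-out of ATP hydrolysis. Conditions: 0.15 nM WRN, 5 μM ATP, 0.1 nM DNA duplex, 1% DMSO, 60 min at 25 °C after 15 min compound preincubation. Max/min controls were DMSO and 20 μM NSC-617145; IC50 from four-parameter fit.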
# T1 sequence (Q14191 with tags, fused parts or gaps L1074F limits assumed): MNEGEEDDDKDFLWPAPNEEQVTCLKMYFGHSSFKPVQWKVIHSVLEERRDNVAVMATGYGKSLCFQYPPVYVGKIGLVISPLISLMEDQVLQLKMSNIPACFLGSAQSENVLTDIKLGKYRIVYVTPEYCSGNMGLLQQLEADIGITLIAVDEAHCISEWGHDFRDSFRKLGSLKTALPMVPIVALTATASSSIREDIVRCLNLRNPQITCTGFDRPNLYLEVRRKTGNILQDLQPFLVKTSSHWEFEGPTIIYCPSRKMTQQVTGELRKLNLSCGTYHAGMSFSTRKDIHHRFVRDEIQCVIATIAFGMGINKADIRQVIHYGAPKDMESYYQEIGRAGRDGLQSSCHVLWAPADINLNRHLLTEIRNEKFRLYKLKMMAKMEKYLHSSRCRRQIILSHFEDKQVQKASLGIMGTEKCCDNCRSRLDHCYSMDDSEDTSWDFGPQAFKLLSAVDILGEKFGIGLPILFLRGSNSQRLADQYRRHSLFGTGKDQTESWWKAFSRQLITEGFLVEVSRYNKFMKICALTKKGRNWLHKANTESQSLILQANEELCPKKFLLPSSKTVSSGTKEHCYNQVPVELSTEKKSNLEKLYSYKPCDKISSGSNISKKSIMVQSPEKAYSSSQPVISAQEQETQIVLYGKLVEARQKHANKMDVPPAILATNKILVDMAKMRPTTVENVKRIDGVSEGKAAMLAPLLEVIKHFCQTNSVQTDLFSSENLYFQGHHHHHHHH
row,Compound,IC50 [µM]
1,"COc1cc(CN(C(=O)C(c2ccc(-c3ccc(F)c(F)c3)cc2F)n2cc(C#N)cn2)[C@@H]2C=CS(=O)(=O)C2)ccn1 (single isomer, unassigned) [I-712, (2R*)-2-(4-cyano-1H-pyrazol-1-yl)-N-[(3R)-1,1-dioxo-2,3-dihydro-1lambda6-thiophen-3-yl]-N-[(2-methoxypyridin-4-yl)methyl]-2-{3,3′,4′-trifluoro-[1,1′-biphenyl]-4-yl}acetamide]",0.5 to 5
2,"CC(C)(O)c1cc(CN(C(=O)Cn2ncc3cc(S(F)(F)(F)(F)F)ccc32)C2C=CS(=O)(=O)C2)ccn1 (single isomer, unassigned) [I-727]",0.5 to 5
3,"CC(C)(O)c1cc(CN(C(=O)C2Cc3cc(S(F)(F)(F)(F)F)ccc3O2)[C@@H]2C=CS(=O)(=O)C2)ccn1 (single isomer, unassigned) [I-730]",< 0.5
4,"COc1cc(CN(C(=O)C(OCCC#N)c2ccc(-c3ccc(F)c(F)c3)cc2F)[C@@H]2C=CS(=O)(=O)C2)ccn1 (single isomer, unassigned) [I-735, (2R*)-2-(2-cyanoethoxy)-N-[(3R)-1,1-dioxo-2,3-dihydro-1lambda6-thiophen-3-yl]-N-[(2-methoxypyridin-4-yl)methyl]-2-{3,3′,4′-trifluoro-[1,1′-biphenyl]-4-yl}acetamide]",0.5 to 5
5,"COc1cc(CN(C(=O)C(OCCC#N)c2ccc(-c3ccc(F)c(F)c3)cc2F)[C@@H]2C=CS(=O)(=O)C2)ccn1 (single isomer, unassigned) [I-736, (2R*)-2-(2-cyanoethoxy)-N-[(3R)-1,1-dioxo-2,3-dihydro-1lambda6-thiophen-3-yl]-N-[(2-methoxypyridin-4-yl)methyl]-2-{3,3′,4′-trifluoro-[1,1′-biphenyl]-4-yl}acetamide]",> 50
6,"COc1cc(CN(C(=O)C(c2ccc(-c3ccc(F)c(F)c3)cc2F)n2ccc(C)n2)[C@@H]2C=CS(=O)(=O)C2)ccn1 (single isomer, unassigned) [I-737, (2R*)-N-[(3R)-1,1-dioxo-2,3-dihydro-1lambda6-thiophen-3-yl]-N-[(2-methoxypyridin-4-yl)methyl]-2-(3-methyl-1H-pyrazol-1-yl)-2-{3,3′,4′-trifluoro-[1,1′-biphenyl]-4-yl}acetamide]",< 0.5
7,"COc1cc(CN(C(=O)C(c2ccc(-c3ccc(F)c(F)c3)cc2F)n2nccc2C)[C@@H]2C=CS(=O)(=O)C2)ccn1 (single isomer, unassigned) [I-738, (2R*)-N-[(3R)-1,1-dioxo-2,3-dihydro-1lambda6-thiophen-3-yl]-N-[(2-methoxypyridin-4-yl)methyl]-2-(5-methyl-1H-pyrazol-1-yl)-2-{3,3′,4′-trifluoro-[1,1′-biphenyl]-4-yl}acetamide]",> 50
8,"COc1cc(CN(C(=O)C(OC2COC2)c2ccc(-c3ccc(F)c(F)c3)cc2F)[C@@H]2C=CS(=O)(=O)C2)ccn1 (single isomer, unassigned) [I-740, (2R*)-N-[(3R)-1,1-dioxo-2,3-dihydro-1lambda6-thiophen-3-yl]-N-[(2-methoxypyridin-4-yl)methyl]-2-(oxetan-3-yloxy)-2-{3,3′,4′-trifluoro-[1,1′-biphenyl]-4-yl}acetamide]",0.5 to 5
9,"COc1cc(CN(C(=O)C(OC2COC2)c2ccc(-c3ccc(F)c(F)c3)cc2F)[C@@H]2C=CS(=O)(=O)C2)ccn1 (single isomer, unassigned) [I-741, (2R*)-N-[(3R)-1,1-dioxo-2,3-dihydro-1lambda6-thiophen-3-yl]-N-[(2-methoxypyridin-4-yl)methyl]-2-(oxetan-3-yloxy)-2-{3,3′,4′-trifluoro-[1,1′-biphenyl]-4-yl}acetamide]",> 50
10,"COc1cc(CN(C(=O)C(OCc2cnn(C)c2)c2ccc(-c3ccc(F)c(F)c3)cc2F)[C@@H]2C=CS(=O)(=O)C2)ccn1 (single isomer, unassigned) [I-742, (2R*)-N-[(3R)-1,1-dioxo-2,3-dihydro-1lambda6-thiophen-3-yl]-N-[(2-methoxypyridin-4-yl)methyl]-2-[(1-methyl-1H-pyrazol-4-yl)methoxy]-2-{3,3′,4′-trifluoro-[1,1′-biphenyl]-4-yl}acetamide]",0.5 to 5
11,"COc1cc(CN(C(=O)C(OCc2cnn(C)c2)c2ccc(-c3ccc(F)c(F)c3)cc2F)[C@@H]2C=CS(=O)(=O)C2)ccn1 (single isomer, unassigned) [I-743, (2R*)-N-[(3R)-1,1-dioxo-2,3-dihydro-1lambda6-thiophen-3-yl]-N-[(2-methoxypyridin-4-yl)methyl]-2-[(1-methyl-1H-pyrazol-4-yl)methoxy]-2-{3,3′,4′-trifluoro-[1,1′-biphenyl]-4-yl}acetamide]",> 50
12,"COC(C(=O)N(Cc1nc(C(C)(C)O)cs1)C1C=CS(=O)(=O)C1)c1ccc(-c2ccc(F)c(F)c2)cc1F (single isomer, unassigned) [I-746, (2R*)-N-[(3R**)-1,1-dioxo-2,3-dihydro-1lambda6-thiophen-3-yl]-N-{[4-(2-hydroxypropan-2-yl)-1,3-thiazol-2-yl]methyl}-2-methoxy-2-{3,3′,4′-trifluoro-[1,1′-biphenyl]-4-yl}acetamide]",< 0.5
13,"COC(C(=O)N(Cc1nc(C(C)(C)O)cs1)C1C=CS(=O)(=O)C1)c1ccc(-c2ccc(F)c(F)c2)cc1F (single isomer, unassigned) [I-747, (2R*)-N-[(3R**)-1,1-dioxo-2,3-dihydro-1lambda6-thiophen-3-yl]-N-{[4-(2-hydroxypropan-2-yl)-1,3-thiazol-2-yl]methyl}-2-methoxy-2-{3,3′,4′-trifluoro-[1,1′-biphenyl]-4-yl}acetamide]",5 to 10
14,"COc1cc(CN(C(=O)C(c2ccc(-c3ccc(F)c(F)c3)cc2F)n2nccc2C)[C@@H]2C=CS(=O)(=O)C2)ccn1 (single isomer, unassigned) [I-749, (2R*)-N-[(3R)-1,1-dioxo-2,3-dihydro-1lambda6-thiophen-3-yl]-N-[(2-methoxypyridin-4-yl)methyl]-2-(5-methyl-1H-pyrazol-1-yl)-2-{3,3′,4′-trifluoro-[1,1′-biphenyl]-4-yl}acetamide]",0.5 to 5
15,"COc1cc(CN(C(=O)C(c2ccc(-c3ccc(F)c(F)c3)cc2F)n2ccc(C)n2)[C@@H]2C=CS(=O)(=O)C2)ccn1 (single isomer, unassigned) [I-750, (2R*)-N-[(3R)-1,1-dioxo-2,3-dihydro-1lambda6-thiophen-3-yl]-N-[(2-methoxypyridin-4-yl)methyl]-2-(3-methyl-1H-pyrazol-1-yl)-2-{3,3′,4′-trifluoro-[1,1′-biphenyl]-4-yl}acetamide]",< 0.5
16,"CC(C)(O)c1cc(CN(C(=O)Cn2cc(-c3cc(F)c(F)cc3F)cn2)C2C=CS(=O)(=O)C2)ccn1 (single isomer, unassigned) [I-763]",< 0.5
17,"COCCOC(C(=O)N(Cc1ccnc(C(C)(C)O)c1)[C@@H]1C=CS(=O)(=O)C1)c1ccc(S(F)(F)(F)(F)F)cc1 (single isomer, unassigned) [I-765]",0.5 to 5
18,"CC(C)(O)c1cc(CN(C(=O)Cn2ncc(-c3ccc(F)c(F)c3)cc2=O)C2C=CS(=O)(=O)C2)ccn1 (single isomer, unassigned) [I-767]",< 0.5
19,"CC(C(=O)N(Cc1ccnc(C(C)(C)O)c1)[C@@H]1C=CS(=O)(=O)C1)n1ccc(-c2ccc(F)c(F)c2)cc1=O (single isomer, unassigned) [I-769]",< 0.5
20,"CC(C)(O)c1cc(CN(C(=O)Cn2ncc(-c3cc(F)c(F)c(F)c3)c2Cl)C2C=CS(=O)(=O)C2)ccn1 (single isomer, unassigned) [I-773]",< 0.5
21,"CC(C(=O)N(Cc1ccnc(C(C)(C)O)c1)C1C=CS(=O)(=O)C1)n1cc(-c2ccc(C(F)(F)F)cc2)cn1 (single isomer, unassigned) [I-774, (2R*)-N-[(3R**)-1,1-dioxo-2,3-dihydro-1lambda6-thiophen-3-yl]-N-{[2-(2-hydroxypropan-2-yl)pyridin-4-yl]methyl}-2-{4-[4-(trifluoromethyl)phenyl]-1H-pyrazol-1-yl}propanamide]",10 to 50
22,"CC(C(=O)N(Cc1ccnc(C(C)(C)O)c1)C1C=CS(=O)(=O)C1)n1cc(-c2ccc(C(F)(F)F)cc2)cn1 (single isomer, unassigned) [I-775, (2R*)-N-[(3R**)-1,1-dioxo-2,3-dihydro-1lambda6-thiophen-3-yl]-N-{[2-(2-hydroxypropan-2-yl)pyridin-4-yl]methyl}-2-{4-[4-(trifluoromethyl)phenyl]-1H-pyrazol-1-yl}propanamide]",0.5 to 5
23,"CC(C(=O)N(Cc1ccnc(C(C)(C)O)c1)C1C=CS(=O)(=O)C1)n1cc(-c2cc(F)c(F)c(F)c2)cn1 (single isomer, unassigned) [I-776, (2R*)-N-[(3R**)-1,1-dioxo-2,3-dihydro-1lambda6-thiophen-3-yl]-N-{[2-(2-hydroxypropan-2-yl)pyridin-4-yl]methyl}-2-[4-(3,4,5-trifluorophenyl)-1H-pyrazol-1-yl]propanamide]",< 0.5
24,"CC(C(=O)N(Cc1ccnc(C(C)(C)O)c1)C1C=CS(=O)(=O)C1)n1cc(-c2cc(F)c(F)c(F)c2)cn1 (single isomer, unassigned) [I-777, (2R*)-N-[(3R**)-1,1-dioxo-2,3-dihydro-1lambda6-thiophen-3-yl]-N-{[2-(2-hydroxypropan-2-yl)pyridin-4-yl]methyl}-2-[4-(3,4,5-trifluorophenyl)-1H-pyrazol-1-yl]propanamide]",< 0.5
25,"CC(C)(O)c1cc(CN(C(=O)Cc2cc(-c3ccc(F)c(F)c3)n[nH]2)C2C=CS(=O)(=O)C2)ccn1 (single isomer, unassigned) [I-781]",10 to 50
26,"CC(C(=O)N(Cc1ccnc(C(C)(C)O)c1)[C@@H]1C=CS(=O)(=O)C1)n1cc(-c2ccc(C(F)(F)F)cc2)cn1 (single isomer, unassigned) [I-788]",5 to 10
